# Experimental data published in EP3202813A1, “CURABLE COMPOSITION AND MOLDED ARTICLE COMPRISING THE COMPOSITION” (Telene SAS, priority 2016, dated 2017).
# Assay: Half-life t1/2CT of radical generators, calculated by Arrhenius formulae from supplier data
# Type: physicochemical
# Text: The half-life of the radical generators used in the compositions for different curing temperatures CT have been calculated by using the well-known formulae given below and data obtained by the supplier of the radical generators (AkzoNobel) (Tables 1-4) kd = A⋅e^(−Ea/RT) [formula] t½ = (ln2)/kd [formula] • Ea = 127.52 kJ/mole • A = 7.59E+13 s^-1 • R = 8.3142 J/mole·K • T = (273.15+°C) K Table 1: The half-life t1/2CT of Trigonox 29C at different curing temperatures CT
# kd = A⋅e^(−Ea/RT) [formula] t½ = (ln2)/kd [formula] • Ea = 124.90 kJ/mole • A = 1.54E+14 s^-1 • R = 8.3142 J/mole·K • T = (273.15+°C) K Table 2: The half-life t1/2CT of Trigonox 21S at different curing temperatures CT
# kd = A⋅e^(−Ea/RT) [formula] t½ = (ln2)/kd [formula] • Ea = 140.78 kJ/mole • A 1.94E+15 s^-1 • R = 8.3142 J/mole·K • T =(273.15+°C) K Table 3: The half-life t1/2CT of Trigonox 42S at different curing temperatures CT
# kd = A⋅e^(−Ea/RT) [formula] t½ = (ln2)/kd [formula] • Ea = 153.46 kJ/mole • A = 4.20E+15 s^-1 • R = 8.3142 J/mole·K • T = (273.15+°C) K Table 4: The half-life t1/2CT of Trigonox B at different curing temperatures CT
compound,measurement,setting,value
"CC(C)(C)OOC(C)(C)C [Trigonox B, tert-butyl peroxide]",t1/2,T 80 °C,2291.85 h
same,t1/2 (h),T 80 °C,"2291,8 h"
same,t1/2 (min),T 80 °C,"137511,0 min"
same,t1/2,T 90 °C,543.4131 h
same,t1/2 (h),T 90 °C,"543,4 h"
same,t1/2 (min),T 90 °C,"32604,8 min"
same,t1/2,T 95 °C,272.481 h
same,t1/2 (h),T 95 °C,"272,5 h"
same,t1/2 (min),T 95 °C,"16348,8 min"
same,t1/2,T 100 °C,139.18 h
same,t1/2 (h),T 100 °C,"139,2 h"
same,t1/2 (min),T 100 °C,"8350,8 min"
same,t1/2,T 105 °C,72.3653 h
same,t1/2 (h),T 105 °C,"72,4 h"
same,t1/2 (min),T 105 °C,"4341,9 min"
same,t1/2,T 110 °C,38.2736 h
same,t1/2 (h),T 110 °C,"38,3 h"
same,t1/2 (min),T 110 °C,"2296,4 min"
same,t1/2,T 120 °C,11.239 h
same,t1/2 (h),T 120 °C,"11,2 h"
same,t1/2 (min),T 120 °C,"674,4 min"
same,t1/2,T 130 °C,3.5075 h
same,t1/2 (h),T 130 °C,"3,5 h"
same,t1/2 (min),T 130 °C,"210,4 min"
same,t1/2,T 150 °C,0.4028 h
same,t1/2 (h),T 150 °C,"0,4 h"
same,t1/2 (min),T 150 °C,"24,2 min"
same,t1/2,T 190 °C,0.00944 h
same,t1/2 (h),T 190 °C,"0,01 h"
same,t1/2 (min),T 190 °C,"0,6 min"
